Here are results for two molecules from patent US3984470A, “Amidoxime derivatives and process for preparing the same” (priority 1974, dated 1976).

Like-named read-outs stand apart in the source and are kept apart here.

The test system of data set [1] is reserpine-induced ptosis. The experiment in a line: Reserpine-induced ptosis in the rat. Particulars: reserpine 5 mg/kg i.p., score scale 0-4, mean to 6th hour vs controls. The data set is classed as in vivo, male rats of the CF1 strain.
Procedure: (§2) The thymoanaleptic properties of the compounds of the invention were determined by means of reserpine-induced ptosis and hypothermia in the rat.
An intraperitoneal dose of 5 mg/kg of reserpine was administered to batches of 5 male rats of the CF1 strain weighing an average of 300 g.
Thirty minutes later a dose of the compound to be studied was given by oral route and the inhibitory effect of the reserpine was noted every hour up to the sixth hour. Ptosis was evaluated for each eye in accordance with the following scale:
4 : eyelids completely closed.
The difference between these two averages represents the average decrease of the ptosis in the treated animals as compared to the controls.
For data set [2], the system named is spontaneous motricity. The experiment in a line: Spontaneous motricity in the mouse. The data set is classed as in vivo. As for the experimental part:
Tests were also performed with a view to determining whether the compounds of the invention modify spontaneous motricity.

Data set [3] has as its system aggressivity of killer rats. The experiment in a line: Aggressivity of killer rats. The data set is classed as in vivo, male rats. From the text: If, under certain conditions, male rats are kept alone in individual cages for several weeks, the become spontaneously aggressive towards any mouse, which they kill as soon as it is placed in the same cage. Mice were introduced one after another into cages containing an isolated rat and a selection was made of the rats which immediately killed three mice. In this way batches of 6 to 8 rats were constituted. The rats were then given the compound to be studied by intraperitoneal route in such a way that each batch received a higher dose than the preceding batch. […] Table V which follows contains the results obtained 30 minutes after administration of the compound to be studied.

Data set [4] deals with toxicity of yohimbine. Nature of the data set: Potentiation of the toxicity of yohimbine (test of QUINTON). The data set is classed as in vivo, male mice. As to the method: Yohimbine is a substance which provokes an increase in the serotonine level in the brain or a decrease in norepinephrine according to the author.
For this purpose, the test of QUINTON was used which is described in Brit. J. Pharmacol. 21, 51 (1963). […] […] The percentage of mortality was noted after 24 hours.
Table III hereunder expresses the percentage of potentiation of the toxicity due to yohimbine in comparison with the controls.
The percentage in question was determined 24 hours after the administration of yohimbine.

Data set [5] deals with contractile reaction of the nictitating membrane. The experiment in a line: Ganglioplegic activity on the anesthetized cat (nictitating membrane). The data set is classed as in vivo. The settings on record: intravenous 0.005, 0.1 and 1 mg/kg. As to the method:
The tonus of the nictitating membrane was first noted after which the contractile reaction of the membrane to electric stimulation of the preganglionic fibre of the cervical sympathetic nerve was tested.

The nature of data set [6]: Toxicity, method of KARBER and BEHRENS, rats. The settings on record: rat, in vivo. As for the experimental part:
(§1) Finally, tests of toxicity were performed with compounds of the invention following the method of KARBER and BEHRENS.

The test system of data set [7] is aggressivity of isolated mice. Nature of the data set: Aggressivity of isolated mice. The data set is classed as in vivo, male mouse. The settings on record: for ED50: Mus musculus, read-out: ED50, inhibition of aggressivity. As for the experimental part: If a male mouse is kept alone in a cage for 3 weeks to 1 month, it will spontanesouly attack any other animal of the same species which is placed in the same cage. If the other animal has also been isolated under the same conditions a series of fights takes place.
Mice were isolated for the period of time required to render them spontaneously aggressive. Couples were then put together and note was taken of the number of fights which took place over a period of 3 minutes. Each batch was composed of four pairs of mice.
The animals of each batch were then treated by intragastric route with the compound to be studied which was administered in such a way that each batch received a higher dose than the preceding batch. […]
The results were expressed in the percentage of decrease in the number of fights between the animals after treatment in comparison with the percentage obtained before treatment which represents the percentage of inhibition of aggressivity.

Data set [8] concerns cholinergic effects provoked by tremorine. The experiment in a line: Cholinolytic properties: action with respect to tremorine. The data set is classed as in vivo, male mice of the OF1 strain. Particulars: tremorine 10 mg/kg, difference vs controls. As to the method:
When injected into mice, tremorine and its metabolite, oxotremorine, produce central cholinergic effects, i.e. normal and provoked tremor as well as peripheral cholinergic effects i.e. weeping, sweating diarrhoea and salivation.
Male mice of the OF1 strain weighing 22 g, were divided into batches of 10. Each batch with the exception of the control animals, received, by oral route, a dose of the compound to be tested.
Thirty minutes later, 10 mg/kg of tremorine were administered to all the batches and thirty minutes after the injection of tremorine note was taken of the cholinergic effects on each animal in accordance with the following scale: […]

The nature of data set [9]: Toxicity, method of KARBER and BEHRENS, mice. Particulars: mouse, in vivo, po. As to the method:
as §1

The test system of data set [10] is neuromuscular functions. The experiment in a line: Rotarod test of BOISSIER / neuromuscular functions. The data set is classed as in vivo, mouse. Particulars: 30 minutes after oral administration, mouse. Background: Falling from the rotarod earlier than controls is read as motor impairment.
Data set [11] concerns reserpine-induced hypothermia. Nature of the data set: Reserpine-induced hypothermia in the rat. The data set is classed as in vivo, male rats CF1. The settings on record: 10 mg/kg oral; reserpine 5 mg/kg i.p.; mean to 6th hour vs controls.
Procedure: as §2
An intraperitoneal dose of 5 mg/kg of reserpine was administered to batches of 5 male rats CF1 weighing an average of 300 g. Thirty minutes later, the rectal temperature was determined and then a dose of the compound to be tested was given by oral route, except to the control animals. The rectal temperature of all the animals including the controls was taken every hour up to the 6th hour.
The difference between these two averages enabled an estimation to be made regarding the antagonistic effect of the compounds of the invention on the hypothermia induced by reserpine.
For data set [12], the system named is stereotypies induced by amphetamine. The experiment in a line: Potentiation of the stereotypies induced by amphetamine. The data set is classed as in vivo, rats. As for the experimental part: It is commonly admitted that amphetamine induces stereotypies by stimulating the dopaminergic receptors and inhibiting the re-uptake of dopamine into the neuron.
The thymoanaleptics potentiate these stereotypies.
Thirty minutes later, a dose of 10 mg/kg of the compound to be tested was given by oral route. Note was taken of the intensity of the stereotypies every 30 minutes for 150 minutes in accordance with the following scale which indicates the behaviour of the animal.
0 : the rat is motionless and asleep
1 : the rat is motionless and awake
3 : the rat stands on its hind paws and sniffs the lid of its cage in a stereotyped manner.
4 : the rat licks the walls of its cage in a stereotyped manner
5 : the rat bites the bars of its cage or sniffs the shavings of its litter in a stereotyped manner
6 : the rat chews the shavings in a stereotyped manner
The average of the 5 results obtained for each batch was calculated and compared with the average obtained with the control animals.
The difference between these averages represents the mean increase of the steroetypies of the treated animals in comparison with the controls.

The test system of data set [13] is peripheral noradrenergic processes. Particulars: intravenous route; cited from earlier work.

For `CC(Oc1cccc2ccccc12)C(N)=NO` (centres unmarked) [Compound 1, 2-(1-Naphthyloxy)-propionamidoxime], the “Average decrease of Ptosis” value in [1] (10 mg/kg oral) stood at 1.7. Besides, the “effect on curiosity of the animal” value in data set [2] (3 mg/kg intragastric, mouse) is on record as “without, however modifying the curiosity of the animal”. The “reduction of spontaneous motricity” value in data set [2] (3 mg/kg intragastric, mouse, 30 minutes after administration) is 50%. Moreover, the “sedation at doses active against aggressivity” value in data set [2] (conclusion from ratio of doses) is “not sedative at the doses which are active against aggressivity”. Further, testing at 3 mg/kg in [3] (Rattus norvegicus, ip, 0.5 h, 3 mg/kg i.p., 30 minutes after administration) gave an inhibition in vivo of 100%. The antiaggressive properties entry in [3] (conclusion from Table V) is “powerful antiaggressive properties”. Besides, the “Potentiation of the toxicity of yohimbine” value in data set [4] (20 mg/kg, same conditions (yohimbine hydrochloride 25 mg/kg i.p.; 24 hours)) amounted to 50%. Besides, the “intensity of the contractions of the nictitating membrane (ganglioplegic effect)” value in data set [5] was “did not modify the intensity of the contractions of the membrane”. Moreover, the LD50 (usually the dose expected to kill half of the subjects tested) at 24 h in data set [6] (ip) is 50 mg/kg. The molecule further returned an LD50 at 24 h in [6] (po) of 108 mg/kg. Moreover, the ED50 (as a rule, the dose at which the effect has come halfway, by size or by number of responders) in [7] (po, 1.5 h, intragastric route, 90 minutes after administration) is 0.42 mg/kg. The ED50 in data set [7] (oral route) stood at 0.63 mg/kg. For the same molecule, in data set [8] (5 mg/kg oral), the “Central response tremor: Normal” value was determined as 0, the “Central response tremor: Provoked” value stood at 0, the “Peripheral cholinergic response: Salivat.” value stood at 0 and the “Peripheral cholinergic response: Sweating” value was 0. The “Peripheral cholinergic response: Weeping” value in data set [8] (5 mg/kg oral) is 0. This molecule also registered an LD50 at 24 h in data set [9] of 380 mg/kg. The “neurotoxic dose 50 (NTD 50) relative to ED50 (isolated mouse)” value in data set [10] is reported as “sufficiently far removed from the ED50”. Further, the “Average inhibition of hypothermia (positive °C)” value in data set [11] turned out to be 0.7 °C. In [12] (10 mg/kg oral, amphetamine 10 mg/kg i.p., every 30 min for 150 min), the “Average increase of the stereotypies” value is recorded as 1.

For `CN(C)CCCN1c2ccccc2CCc2ccccc21` [imipramine, 5-(3-dimethylaminopropyl)-10,11-dihydro-5H-dibenz [b,f] azepine, reference compound], the “Average decrease of Ptosis” value in data set [1] (20 mg/kg oral) turned out to be 1.6. Moreover, in data set [3] (Rattus norvegicus, ip, 0.5 h, 20 mg/kg i.p., 30 minutes after administration), the inhibition in vivo – broadly, the percentage by which the read-out fell short of the control – at 20 mg/kg came out at 45%. Further, the mortality (as a rule, the share of the test organisms that died) at 50 mg/kg in data set [4] (Mus musculus, 50 mg/kg oral, yohimbine hydrochloride 25 mg/kg i.p., mortality after 24 hours) is 50%. The same molecule had an inhibition of aggressivity in data set [7] (20 mg/kg) of 78%. For the same molecule, the “dose of imipramine giving the same activity as Compound 1” value in [7] (relative to 0.42 mg/kg of Compound 1, intragastric, 90 minutes) is listed as “twenty-times greater”. Also, in data set [8] (20 mg/kg oral), the “Central response tremor: Normal” value is on record as -4, the “Central response tremor: Provoked” value is reported as -0.4, the “Peripheral cholinergic response: Salivat.” value was found to be 0 and the “Peripheral cholinergic response: Sweating” value is reported as -2. Also, the “Peripheral cholinergic response: Weeping” value in data set [8] (20 mg/kg oral) was -0.8. Moreover, in data set [13], the “dose potentiating the peripheral effects of exogenous norepinephrine” value is given as not below 1 mg/kg. In data set [11], the “Average inhibition of hypothermia (positive °C)” value was determined as 0.4 °C. Besides, in [12] (5 mg/kg, same conditions (intragastric), 150 minutes), the “Average increase of the stereotypies” value was determined as 4.4. For the same molecule, in data set [12] (20 mg/kg, same conditions (amphetamine 10 mg/kg i.p.)), the “Average increase of the stereotypies” value is on record as 6.
